Data taken from patent US20110015261A1, “USE OF A COMPOSITION COMPRISING AT LEAST ONE BETA-BLOCKER FOR THE TREATMENT OF SLEEP DISORDERS” (Zleepax Europe ApS, priority 2007, published 2011).
Where two headings read alike, the source gives them in different places.

Tests used:
[1] = test system: patients with hypertension; details: cited from earlier work; for effect on the quality of sleep: patients with hypertension (Stoschitzky 2006)
[2] = test system: nocturnal aMT6s secretion; details: healthy volunteers (Stoschitzky 2006); cited from earlier work
[3] = test system: non-hypertensive stressed individuals with transient insomnia; experiment: Sleep quality in non-hypertensive stressed individuals with transient insomnia; format: in vivo, human; details: 1.25 mg 2 hours before bedtime; 6 individuals (5 males, 1 female)
Procedure: 6 non-hypertensive stressed individuals with transient insomnia (5 males and 1 female) were treated with 1.25 mg Hypoloc (Nebivolol) 2 hours before bedtime.

| Compound | quality of sleep ([1]; patients with hypertension (Testa 1993)) | effects on the nocturnal aMT6s urinary secretion [2] | quality of sleep ([1]; patients with hypertension (Erdem 2007)) | effect on the quality of sleep [1] | sleep quality as reported by individuals [3] |
| --- | --- | --- | --- | --- | --- |
| C[C@H](CS)C(=O)N1CCC[C@H]1C(=O)O [Captopril] | improve the quality of sleep |  |  |  |  |
| OC(CNCC(O)C1CCc2cc(F)ccc2O1)C1CCc2cc(F)ccc2O1 (centres unmarked) [Nebivolol] |  | little if any effects | can improve the quality of sleep | no negative effect | significant improvement in sleep quality |
| CC(C)NCC(O)COc1ccc(COCCOC(C)C)cc1 (centres unmarked) [Bisoprolol] |  |  |  | no negative effect |  |
| COc1ccccc1OCCNCC(O)COc1cccc2[nH]c3ccccc3c12 (centres unmarked) [Carvedilol] |  | little if any effects |  | no negative effect |  |
